Assay results from paper PMC12652692, “Synthesis and In Vitro Anticancer Evaluation of Novel Phosphonium Derivatives of Chrysin” (International Journal of Molecular Sciences, 2025).
Entries after “also recorded” stand apart in the source; their conditions may differ. Read-outs that look alike come from different tables or passages of the source.

What was measured:
[1] = tested on: A2780; assay: MTT antiproliferative assay; format: cell-based, human; conditions: for IC50 / inhibition at 10 µM / inhibition at 30 µM: Homo sapiens; for IC50: read-out: IC50 Value (μM) ± SEM; for inhibition at 10 µM: A2780, 10 μM; for inhibition at 30 µM: A2780, 30 μM; for Selectivity Ratio: IC50 on NIH/3T3 fibroblasts / IC50 on A2780
Description: (§1) As the NCI has not been accepting compound submissions from investigators outside the USA for NCI-60 testing since 2024, chrysin derivatives 3i, 3j, and 5 were instead evaluated in additional viability assays against a simplified panel of human cancer cell lines representing breast (MCF-7 and MDA-MB-231), cervical (HeLa and SiHa), and ovarian cancers. A nonmalignant fibroblast cell line (NIH/3T3) was also used to obtain preliminary results describing the cancer selectivity of the test substances. […] The two effective agents were further investigated using a broad concentration range (0.1–30 µM), and their IC50 values were calculated (Table 3).
(§2) The cell growth-inhibiting properties of compounds 3i, 3j, and 5 were determined by means of the MTT assay against a panel of human malignant cell lines of gynecological origin [8, 27, 40]. The panel included breast (MCF-7 and MDA-MB-231; Cellosaurus accessions: CVCL_0031 and CVCL_0062, respectively), cervical (HeLa and SiHa; CVCL_0030 and CVCL_0032, respectively), and ovarian (A2780; CVCL_0134) cell lines. Nonmalignant murine NIH/3T3 (CVCL_0594) fibroblasts were also used to obtain results characterizing the cancer selectivity of the tested substances. The whole assay was performed as described earlier. […] All applied cell lines were obtained from the European Collection of Cell Cultures (Salisbury, UK), except for SiHa (American Tissue Culture Collection, Manassas, VA, USA). Cisplatin, a clinically available anticancer drug, was included as a reference compound. All experiments were conducted twice, with at least five replicates per condition.

[2] = tested on: HeLa; assay: MTT antiproliferative assay; format: cell-based, human; conditions: for IC50 / inhibition at 10 µM / inhibition at 30 µM: Homo sapiens, HeLa; for IC50: read-out: IC50 Value (μM) ± SEM; for Selectivity Ratio: IC50 on NIH/3T3 fibroblasts / IC50 on HeLa
Description: as §1, §2

[3] = tested on: MCF-7; assay: MTT antiproliferative assay; format: cell-based, human; conditions: for inhibition at 10 µM / inhibition at 30 µM / IC50: Homo sapiens, MCF7; for inhibition at 10 µM: MCF-7, 10 μM; for inhibition at 30 µM: MCF-7, 30 μM; for IC50: MCF-7, read-out: IC50 Value (μM) ± SEM; for Selectivity Ratio: IC50 on NIH/3T3 fibroblasts / IC50 on MCF-7
Description: as §1, §2

[4] = tested on: MDA-MB-231; assay: MTT antiproliferative assay; format: cell-based, human; conditions: for IC50 / inhibition at 10 µM / inhibition at 30 µM: Homo sapiens; for IC50: read-out: IC50 Value (μM) ± SEM; for inhibition at 10 µM: MDA-MB-231, 10 μM; for inhibition at 30 µM: MDA-MB-231, 30 μM; for Selectivity Ratio: IC50 on NIH/3T3 fibroblasts / IC50 on MDA-MB-231
Description: as §1, §2

[5] = tested on: SiHa; assay: MTT antiproliferative assay; format: cell-based, human; conditions: for IC50 / inhibition at 10 µM / inhibition at 30 µM: Homo sapiens, SiHa; for IC50: read-out: IC50 Value (μM) ± SEM; for Selectivity Ratio: IC50 on NIH/3T3 fibroblasts / IC50 on SiHa
Description: as §1, §2

[6] = tested on: NIH/3T3 (fibroblast); assay: MTT antiproliferative assay; format: cell-based, murine; conditions: Mus musculus; for inhibition at 10 µM: NIH3T3, 10 μM; for IC50: NIH3T3, read-out: IC50 Value (μM) ± SEM
Description: as §1, §2

[7] = tested on: panel of human malignant cell lines of gynecological origin; assay: MTT antiproliferative assay, whole panel; format: cell-based; conditions: for inhibition at 10 µM / IC50: Homo sapiens; for inhibition at 10 µM: across the tested cell lines, read-out: inhibition rates; for IC50: HeLa, SiHa, MCF-7, MDA-MB-231, A2780, read-out: IC50 values (range over cancer cell lines)
Description: as §1
Besides the cell growth-inhibiting potency, cancer selectivity is a crucial factor determining the perspective of a drug candidate. This property is expressed as a selectivity ratio, i.e., the ratio of the compound’s IC50 obtained on the non-cancerous fibroblasts and those from the cancer cell lines. A higher ratio indicates more promising cancer selectivity (Table 3). […] Based on these efficacy and selectivity data, further cell-based studies were performed with 3i against MCF-7 breast cancer cells.
as §2

[8] = tested on: MCF-7 cells; assay: Cell cycle analysis by flow cytometry; format: cell-based, human; conditions: MCF-7, 0.3 and 0.6 µM
Experimental: The observed cell cycle disturbance is consistent with a blockade at the G1–S transition, which triggers apoptotic cell death.
Cell cycle analysis by flow cytometry was applied to characterize the effects of 3i on the phase distribution of the treated cells. MCF-7 cells were seeded onto 12-well plates (200,000 cells/well) and incubated overnight. They were then treated with 0.3 or 0.6 μM for 24 or 48 h. After the treatment, the propidium iodide-labeled cells were analyzed using a CytoFLEX instrument (Beckman Coulter, Brea, CA, USA), and at least 20,000 cells per sample were evaluated, as described in a recent publication. The obtained data were processed using ModFit LT 3.3.11 software (Verity Software House, Topsham, ME, USA) as referenced by Vermes et al..

[9] = tested on: MCF-7 cells; assay: Wound-healing assay (migration); format: cell-based, human
Experimental: The effect of the selected compound on the migration of MCF-7 cells was investigated by means of the wound-healing assay.
The effect of substance 3i on the migration of the treated cancer cells was determined using a wound-healing assay, as presented earlier. Briefly, MCF-7 cells were trypsinized and plated into wound assay chambers (ibidi GmbH, Martinsried, Germany) at a density of 40,000 cells/insert, and the plate was incubated under standard conditions to allow proper attachment. Then, the inserts were carefully removed, and the cells were subsequently treated with 3i in fresh medium containing 2% FBS. The cell migration was recorded using a phase-contrast inverted microscope (Nikon Instruments Europe, Amstelveen, The Netherlands) fitted with a CCD camera (QImaging MicroPublisher Color RTV5.0 Teledyne Photometrics, Tucson, AZ, USA). The cell-free areas in treated samples and controls were determined using ImageJ software 1.54d (National Institutes of Health, Bethesda, MD, USA). The assays were performed in triplicates and all the statistical analyses were carried out by means of GraphPad Prism software.

[10] = tested on: HeLa; design: method as in PMID 40332477; conditions: published earlier ref 8, read-out: IC50 Value (μM) ± SEM; cited from earlier work
[11] = tested on: SiHa; design: method as in PMID 40332477; conditions: published earlier ref 8, read-out: IC50 Value (μM) ± SEM; cited from earlier work
[12] = tested on: MCF-7; design: method as in PMID 40332477; conditions: published earlier ref 8, read-out: IC50 Value (μM) ± SEM; cited from earlier work
[13] = tested on: MDA-MB-231; design: method as in PMID 40332477; conditions: published earlier ref 8, read-out: IC50 Value (μM) ± SEM; cited from earlier work
[14] = tested on: A2780; design: method as in PMID 40332477; conditions: published earlier ref 8, read-out: IC50 Value (μM) ± SEM; cited from earlier work
[15] = tested on: NIH/3T3 (fibroblast); design: method as in PMID 40332477; conditions: published earlier ref 8, read-out: IC50 Value (μM) ± SEM; cited from earlier work
[16] = read-out: Growth Inhibition (%) ± SEM
[17] = read-out: Growth Inhibition (%) ± SEM (converted)
[18] = NIH3T3, 30 μM, read-out: Growth Inhibition (%) ± SEM
[19] = A2780, heading: Growth Inhibition ± SEM
[20] = heading: Growth Inhibition ± SEM
[21] = MDA-MB-231, heading: Growth Inhibition ± SEM

| Compound | IC50 ([1]; A2780) | inhibition at 10 µM [1, 16] | inhibition at 30 µM [1, 17] | Selectivity Ratio [1] | IC50 [2] | inhibition at 10 µM [2, 16] | inhibition at 30 µM [2, 17] | Selectivity Ratio [2] | inhibition at 10 µM [3, 16] | inhibition at 30 µM [3, 16] | IC50 [3] | Selectivity Ratio [3] | IC50 ([4]; MDA-MB-231) | inhibition at 10 µM [4, 16] | inhibition at 30 µM [4, 17] | Selectivity Ratio [4] | IC50 [5] | inhibition at 10 µM [5, 16] | Selectivity Ratio [5] | inhibition at 10 µM [6, 16] | further results |
| --- | --- | --- | --- | --- | --- | --- | --- | --- | --- | --- | --- | --- | --- | --- | --- | --- | --- | --- | --- | --- | --- |
| COc1ccccc1[P+](CCCCOc1cc(O)c2c(=O)cc(-c3ccccc3)oc2c1)(c1ccccc1)c1ccccc1 [3i] | 0.66 ± 0.03 µM | 96.85 ± 0.37% | 98.3% | 2.52 | 1.08 ± 0.02 µM | 96.5 ± 2.76% | 98.9% | 1.54 | 95.4 ± 1.54% | 95.8 ± 1.46% | 0.26 ± 0.02 µM | 6.38 | 0.54 ± 0.02 µM | 88.6 ± 3.72% | 87.4% | 3.07 | 1.15 ± 0.03 µM | 83.2 ± 2.13% | 1.44 | 97.73 ± 0.53% | inhibition at 30 µM [5, 17]: 104%; inhibition at 30 µM [6, 18]: 98.5%; IC50 [6]: 1.66 ± 0.15 µM; inhibition at 10 µM [7]: > 80%; IC50 [7]: 260 to 1150 nM; cell cycle distribution ([8]; 24 h): significantly increased the proportion of the G0/G1 cell population; cell cycle distribution ([8]; 48 h): statistically significant accumulation of the hypodiploid (SubG1) cell population; inhibition of migration ([9]; MCF-7, 24 h): significant inhibition in the migration capacity at a concentration of 0.3 μM only; inhibition of migration ([9]; MCF-7, 48 h): significant even at subantiproliferative concentration (0.1 μM) |
| CC(C)(C)[P+](CCCCOc1cc(O)c2c(=O)cc(-c3ccccc3)oc2c1)(c1ccccc1)c1ccccc1 [3j] | 1.37 ± 0.04 µM | 98.77 ± 0.19% | 98.96 ± 0.381% | 1.43 | 2.93 ± 0.02 µM | 96.64 ± 0.26% | 97.5% | 0.67 | 98.65 ± 0.29% | 98.68 ± 0.32% | 0.88 ± 0.01 µM | 2.23 | 1.24 ± 0.02 µM | 98 ± 1.03% | 98.1 ± 0.13% | 1.58 | 1.47 ± 0.01 µM | 97.91 ± 0.06% | 1.33 | 98.38 ± 0.53% | inhibition at 30 µM [5, 17]: 97.81 ± 0.46%; inhibition at 30 µM [6, 18]: 99%; IC50 [6]: 1.96 ± 0.01 µM; inhibition at 10 µM [7]: > 80%; IC50 [7]: 880 to 2930 nM |
| N.N.[Cl][Pt][Cl] [Cisplatin] | – | – | – | 1.93 | – | – | – | 0.20 | – | – | – | 1.04 | – | – | – | 0.14 | – | – | 0.17 | – | IC50 [10]: 13.6 ± 0.44 µM; IC50 [11]: 15.5 ± 0.93 µM; IC50 [12]: 2.6 ± 0.17 µM; IC50 [13]: 19.13 ± 0.12 µM; IC50 [14]: 1.4 ± 0.11 µM; IC50 [15]: 2.7 ± 0.3 µM |
| O=C(CC(c1ccccc1)(c1ccccc1)c1ccccc1)Oc1cc(O)c2c(=O)cc(-c3ccccc3)oc2c1 [compound 5] | – | – | – | – | – | – | – | – | – | – | – | – | – | – | – | – | – | – | – | > 10% | inhibition at 10 µM [1, 19]: < 10%; inhibition at 30 µM [1, 19]: < 10%; inhibition at 10 µM [2, 20]: < 10%; inhibition at 30 µM [2, 20]: < 10%; inhibition at 10 µM [3, 20]: < 10%; inhibition at 30 µM [3, 20]: < 10%; inhibition at 10 µM [4, 21]: < 10%; inhibition at 30 µM [4, 21]: < 10%; inhibition at 10 µM [5, 20]: < 10%; inhibition at 30 µM [5, 20]: < 10%; inhibition at 30 µM ([6]; NIH3T3, heading: Growth Inhibition ± SEM, 30 μM): < 10%; cell growth-inhibiting effect (in words) ([7]; 10 and 30 μM): ineffective; also recorded: no cytotoxicity |
